A short description of one assay: cells. It counts as functional, cell-based.
The next assay concerns the target Activated CDC42 kinase 1 (Homo sapiens, UniProt Q07912). Put plainly: Navigating the Kinome. Panel member name: ACK1. It counts as functional.
Assay [1] addresses 3-phosphoinositide-dependent protein kinase 1 (Homo sapiens, UniProt O15530). It counts as functional.
In assay [2] the target is MAP/microtubule affinity-regulating kinase 3 (Homo sapiens, UniProt P27448). The assay is classed as functional.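 Also: MARK3 affinity measured as one member of a kinome panel.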
MAP/microtubule affinity-regulating kinase 3, sequence (P27448 whole entry): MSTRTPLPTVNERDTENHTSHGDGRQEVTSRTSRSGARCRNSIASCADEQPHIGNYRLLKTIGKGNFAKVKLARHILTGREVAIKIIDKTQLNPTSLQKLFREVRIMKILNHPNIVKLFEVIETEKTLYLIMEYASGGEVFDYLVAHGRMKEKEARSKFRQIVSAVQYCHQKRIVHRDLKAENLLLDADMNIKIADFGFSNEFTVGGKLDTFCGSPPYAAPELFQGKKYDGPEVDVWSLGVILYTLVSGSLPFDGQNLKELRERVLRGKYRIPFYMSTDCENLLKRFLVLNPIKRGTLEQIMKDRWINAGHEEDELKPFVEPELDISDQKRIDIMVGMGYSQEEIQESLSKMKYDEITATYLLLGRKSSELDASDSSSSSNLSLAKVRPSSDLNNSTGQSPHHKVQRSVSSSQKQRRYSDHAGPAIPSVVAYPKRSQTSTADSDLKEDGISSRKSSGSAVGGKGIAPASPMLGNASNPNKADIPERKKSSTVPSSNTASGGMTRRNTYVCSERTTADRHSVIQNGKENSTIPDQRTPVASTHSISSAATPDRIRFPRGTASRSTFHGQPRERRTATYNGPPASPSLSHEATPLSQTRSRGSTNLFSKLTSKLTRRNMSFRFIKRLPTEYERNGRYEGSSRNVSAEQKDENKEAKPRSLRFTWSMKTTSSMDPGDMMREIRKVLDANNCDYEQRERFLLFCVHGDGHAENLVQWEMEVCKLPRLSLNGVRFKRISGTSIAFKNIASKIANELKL
Assay [3] deals with Serine/threonine-protein kinase 3 (Homo sapiens, UniProt Q13188). The assay is classed as functional.
Serine/threonine-protein kinase 3, sequence (Q13188 whole entry): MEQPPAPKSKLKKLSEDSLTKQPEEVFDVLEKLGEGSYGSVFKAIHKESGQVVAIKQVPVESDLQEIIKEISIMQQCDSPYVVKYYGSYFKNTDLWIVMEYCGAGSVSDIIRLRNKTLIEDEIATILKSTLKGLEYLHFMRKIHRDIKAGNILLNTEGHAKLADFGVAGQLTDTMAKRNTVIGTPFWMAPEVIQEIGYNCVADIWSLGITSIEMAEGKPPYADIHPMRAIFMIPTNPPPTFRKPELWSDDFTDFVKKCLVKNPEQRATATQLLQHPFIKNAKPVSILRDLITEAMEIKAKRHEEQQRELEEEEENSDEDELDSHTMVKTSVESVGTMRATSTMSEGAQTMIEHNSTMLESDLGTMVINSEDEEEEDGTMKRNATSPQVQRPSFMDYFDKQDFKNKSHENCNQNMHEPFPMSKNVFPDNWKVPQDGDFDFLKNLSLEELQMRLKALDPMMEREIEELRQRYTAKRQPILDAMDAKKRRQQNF
The target of assay [4] is Tyrosine-protein kinase ABL1 (Homo sapiens, UniProt P00519). It counts as functional.
Assay [5] has as its target Homeodomain-interacting protein kinase 2 (Homo sapiens, UniProt Q9H2X6). The assay is classed as functional.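 Also: measured within a kinome-wide kinase profiling panel, HIPK2 being one panel member.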
Assay [6] deals with Serine/threonine-protein kinase SIK2 (Homo sapiens, UniProt Q9H0K1). In words: Navigating the Kinome. Panel member name: SIK2. The assay is classed as functional.
Serine/threonine-protein kinase SIK2, sequence (Q9H0K1 whole entry): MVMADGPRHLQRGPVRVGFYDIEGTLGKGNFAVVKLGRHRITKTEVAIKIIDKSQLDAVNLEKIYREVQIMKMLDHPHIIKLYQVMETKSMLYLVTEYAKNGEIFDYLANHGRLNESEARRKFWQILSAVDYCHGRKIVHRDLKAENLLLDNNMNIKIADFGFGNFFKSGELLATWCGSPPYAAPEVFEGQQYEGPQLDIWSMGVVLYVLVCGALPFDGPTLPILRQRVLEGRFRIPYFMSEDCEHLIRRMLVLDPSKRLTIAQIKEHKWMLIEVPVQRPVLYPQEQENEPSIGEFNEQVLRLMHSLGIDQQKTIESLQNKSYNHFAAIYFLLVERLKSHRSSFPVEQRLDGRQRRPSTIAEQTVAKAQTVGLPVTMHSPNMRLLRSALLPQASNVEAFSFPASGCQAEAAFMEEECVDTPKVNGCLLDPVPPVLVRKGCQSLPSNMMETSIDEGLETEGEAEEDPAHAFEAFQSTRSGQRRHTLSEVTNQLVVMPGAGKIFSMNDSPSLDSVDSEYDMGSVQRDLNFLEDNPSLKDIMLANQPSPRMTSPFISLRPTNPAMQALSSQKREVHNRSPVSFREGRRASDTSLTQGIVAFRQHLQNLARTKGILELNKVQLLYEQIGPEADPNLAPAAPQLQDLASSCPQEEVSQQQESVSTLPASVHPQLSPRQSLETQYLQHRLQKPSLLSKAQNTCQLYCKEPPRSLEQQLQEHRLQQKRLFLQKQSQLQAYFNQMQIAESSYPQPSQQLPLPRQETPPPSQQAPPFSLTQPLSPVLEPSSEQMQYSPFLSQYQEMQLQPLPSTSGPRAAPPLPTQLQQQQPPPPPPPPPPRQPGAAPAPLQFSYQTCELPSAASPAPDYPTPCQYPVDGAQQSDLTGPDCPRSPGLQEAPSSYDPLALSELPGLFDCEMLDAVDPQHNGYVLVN
Assay [7] concerns the target Dual specificity protein kinase CLK4 (Homo sapiens, UniProt Q9HAZ1). It counts as functional.
The target of assay [8] is Tyrosine-protein kinase JAK3 (Homo sapiens, UniProt P52333). The assay is classed as functional.
Tyrosine-protein kinase JAK3, sequence (P52333 whole entry): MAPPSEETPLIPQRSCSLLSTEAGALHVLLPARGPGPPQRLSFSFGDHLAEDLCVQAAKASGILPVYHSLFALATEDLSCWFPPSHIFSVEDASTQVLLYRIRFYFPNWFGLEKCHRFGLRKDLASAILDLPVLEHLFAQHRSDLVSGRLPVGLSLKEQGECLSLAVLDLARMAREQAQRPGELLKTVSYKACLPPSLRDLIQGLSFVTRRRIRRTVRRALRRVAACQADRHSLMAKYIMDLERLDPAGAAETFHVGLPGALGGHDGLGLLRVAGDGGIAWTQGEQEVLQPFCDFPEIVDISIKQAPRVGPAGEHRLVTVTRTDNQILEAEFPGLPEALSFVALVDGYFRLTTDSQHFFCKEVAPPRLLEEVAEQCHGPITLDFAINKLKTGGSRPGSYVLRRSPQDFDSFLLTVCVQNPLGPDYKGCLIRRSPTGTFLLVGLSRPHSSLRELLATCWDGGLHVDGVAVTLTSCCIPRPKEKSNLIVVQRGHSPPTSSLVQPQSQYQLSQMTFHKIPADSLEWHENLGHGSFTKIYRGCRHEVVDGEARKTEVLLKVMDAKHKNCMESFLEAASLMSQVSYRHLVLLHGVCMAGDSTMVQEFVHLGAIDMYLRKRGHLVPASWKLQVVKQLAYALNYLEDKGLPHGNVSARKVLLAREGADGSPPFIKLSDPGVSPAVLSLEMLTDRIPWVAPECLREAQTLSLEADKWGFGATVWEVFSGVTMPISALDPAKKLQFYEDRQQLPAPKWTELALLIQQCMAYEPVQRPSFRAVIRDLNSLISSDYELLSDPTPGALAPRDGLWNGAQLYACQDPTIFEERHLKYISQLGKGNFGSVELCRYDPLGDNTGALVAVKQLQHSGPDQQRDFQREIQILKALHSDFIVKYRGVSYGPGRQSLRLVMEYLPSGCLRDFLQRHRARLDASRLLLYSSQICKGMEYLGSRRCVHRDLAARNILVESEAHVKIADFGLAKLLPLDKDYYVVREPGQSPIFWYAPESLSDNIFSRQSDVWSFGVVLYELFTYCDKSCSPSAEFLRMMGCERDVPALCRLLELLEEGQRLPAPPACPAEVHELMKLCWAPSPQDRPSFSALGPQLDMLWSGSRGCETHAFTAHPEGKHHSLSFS
Another assay addresses Aurora kinase B (Homo sapiens, UniProt Q96GD4). It counts as functional.
The target of assay [9] is Calcium/calmodulin-dependent protein kinase type II subunit alpha (Homo sapiens, UniProt Q9UQM7). In words: Navigating the Kinome. Panel member name: CAMK2A. The assay is classed as functional.
The target of assay [10] is Death-associated protein kinase 3 (Homo sapiens, UniProt O43293). The assay is classed as functional.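 Also: measured as one member of a kinome-wide profiling panel.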
Death-associated protein kinase 3, sequence (O43293 whole entry): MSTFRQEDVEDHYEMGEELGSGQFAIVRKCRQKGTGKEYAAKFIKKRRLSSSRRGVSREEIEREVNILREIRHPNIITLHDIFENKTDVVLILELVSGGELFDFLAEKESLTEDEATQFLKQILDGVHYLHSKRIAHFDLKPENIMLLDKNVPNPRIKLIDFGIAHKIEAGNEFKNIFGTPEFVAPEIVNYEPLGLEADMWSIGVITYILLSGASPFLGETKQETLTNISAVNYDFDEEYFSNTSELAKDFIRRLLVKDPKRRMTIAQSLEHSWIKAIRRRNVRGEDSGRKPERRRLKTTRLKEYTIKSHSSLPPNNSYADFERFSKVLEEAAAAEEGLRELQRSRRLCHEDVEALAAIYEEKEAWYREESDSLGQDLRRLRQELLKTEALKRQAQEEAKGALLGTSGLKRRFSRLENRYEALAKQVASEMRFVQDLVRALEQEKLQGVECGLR
A short description of assay [11]: THP-1 cell cytotoxicity, dose response, cytotoxicity control for Vif-APOBEC3G degradation inhibitor project, THP-1 cells (AID 1117359). It counts as functional. The following applies: Human immunodeficiency virus 1, THP-1.

Calls of active or inactive are those of the source.
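For EC50 in this document: proteasome chymotrypsin-like activity measured in U2OS cells; potency is for inhibition of proteasome activity.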

3-phosphoinositide-dependent protein kinase 1, sequence (O15530 whole entry): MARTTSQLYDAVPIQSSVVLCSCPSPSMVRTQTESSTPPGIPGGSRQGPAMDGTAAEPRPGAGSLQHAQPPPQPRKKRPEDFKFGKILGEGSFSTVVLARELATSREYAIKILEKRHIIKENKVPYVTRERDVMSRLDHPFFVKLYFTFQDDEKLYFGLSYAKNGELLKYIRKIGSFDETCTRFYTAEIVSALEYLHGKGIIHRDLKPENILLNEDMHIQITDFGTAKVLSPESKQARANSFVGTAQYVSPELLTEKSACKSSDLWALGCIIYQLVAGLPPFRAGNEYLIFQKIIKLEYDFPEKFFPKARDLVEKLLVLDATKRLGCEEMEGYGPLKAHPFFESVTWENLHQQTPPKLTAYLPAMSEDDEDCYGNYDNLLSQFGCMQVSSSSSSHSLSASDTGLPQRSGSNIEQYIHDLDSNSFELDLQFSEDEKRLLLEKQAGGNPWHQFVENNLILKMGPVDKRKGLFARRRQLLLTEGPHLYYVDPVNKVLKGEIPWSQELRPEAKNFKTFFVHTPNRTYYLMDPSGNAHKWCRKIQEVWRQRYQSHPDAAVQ
Dual specificity protein kinase CLK4, sequence (Q9HAZ1 whole entry): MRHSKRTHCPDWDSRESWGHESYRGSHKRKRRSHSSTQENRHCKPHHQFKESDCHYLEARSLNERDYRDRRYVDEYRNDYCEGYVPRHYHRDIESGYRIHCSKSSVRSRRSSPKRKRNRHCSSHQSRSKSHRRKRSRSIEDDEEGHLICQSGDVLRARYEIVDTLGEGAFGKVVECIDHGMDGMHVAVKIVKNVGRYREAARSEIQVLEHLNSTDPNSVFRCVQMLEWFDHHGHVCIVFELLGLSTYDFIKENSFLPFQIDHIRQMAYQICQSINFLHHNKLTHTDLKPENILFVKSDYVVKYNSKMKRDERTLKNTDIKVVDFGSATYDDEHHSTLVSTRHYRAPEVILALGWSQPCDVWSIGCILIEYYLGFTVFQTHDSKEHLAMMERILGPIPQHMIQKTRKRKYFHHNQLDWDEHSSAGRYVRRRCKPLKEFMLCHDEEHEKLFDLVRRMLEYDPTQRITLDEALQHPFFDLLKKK

Take `CCOC(=O)c1c(NS(=O)(=O)c2ccccc2)n(CCCOC)c2nc3ccccc3nc12`: the EC50 in the assay “cells” is > 350000 nM (not active).
With `OC1CCC(Nc2cc(Cl)nc(-c3c[nH]c4ncccc34)n2)CC1` (centres undefined), the Ki at Activated CDC42 kinase 1 was > 3980 nM (inactive); in assay [1] it was 50.1 nM (active); in assay [2], 398 nM (active); in assay [3], 50.1 nM (active); in assay [4] it was > 631 nM (inactive); in assay [5], 79.4 nM (active). Moreover, the Ki in assay [6] is 398 nM (active); in [7] it was 20 nM (active); in [8] it was 200 nM (active); on Aurora kinase B, 316 nM (active); in [9] it was > 3160 nM (inactive); in [10], 316 nM (active).
As to `COCC/N=c1\scc(-c2cccs2)n1/N=C/c1ccc(O)c(O)c1O`, in assay [11], the CC50 is 16500 nM (active).

(Values after ChEMBL document CHEMBL1201862, “PubChem BioAssay data set” (2004).)
